# Measurements published in patent US20110091577A1, “DRUG RELEASE COATINGS ON CALCUIM PHOSPHATE AND USES THEREOF” (priority 2008, published 2011).
# Experiments:
# [1] = Gentamicin release study, parallel release reactions in PBS buffer; assay type: physicochemical; details: FIG. 2A; 6.0 mg solid in 1.50 mL PBS, 37° C., pH 7.4
# Procedure: Gentamicin and vancomycin loading and release are presented for a homopolymer system where the antibiotic gentamicin or vancomycin is bound to hydroxyapatite (HA) using commercially available poly-L-glutamate. This corresponds to the schematic illustrated in FIG. 1A. The experiment consisted of producing gentamicin or vancomycin adsorbed on poly-L-glutamate coated hydroxyapatite, and measuring the drug's rate of release into phosphate-buffered saline at 20° C. or 37° C. and pH 7.4, relative to a drug/hydroxyapatite control without the polymer. Gentamicin release study—Parallel release reactions: Gentamicin release rates from the experimental sample (G/pgHA) and control (G/HA) were measured by running multiple release reactions of each in parallel and stopping the reactions at different times. In each release sample 6.0 mg of solid was mixed in 1.50 mL of PBS buffer in an Eppendorf tube in a 37° C. shaker bath. Samples were removed from the bath at 15 minute intervals, centrifuged for 30 seconds, and the supernatant saved for later analysis.
# staphylococci = details: literature value (de Neeling et al., 1998); cited from earlier work
substance,measurement,setting,value
gentamicin,time for adsorbed gentamicin to reach equilibrium with the buffer,[1],within one hour
same,minimum inhibitory concentration required to kill staphylococci,staphylococci,4 µg/mL
